According to ChEMBL document CHEMBL4138203, “Recent developments in anti-Trichomonas research: An update review” (Eur J Med Chem, 2018):
Values after ≈ are worked out from the molar mass of the structure shown. Blank lines part the entries; values can stand above or below the compound they belong to.

Experiments:
Trichomonas vaginalis [1] = assay: Anti-Trichomonas activity against Trichomonas vaginalis isolate 1 at 250 uM after 48 hrs by microscopic analysis; assay type: functional; details: isolate 1, 48 h
Trichomonas vaginalis [2] = assay: Anti-Trichomonas activity against Trichomonas vaginalis isolate 2 at 250 uM after 48 hrs by microscopic analysis; assay type: functional; details: isolate 2, 48 h
Homo sapiens [3] = organism: Homo sapiens; assay: Spermicidal activity in human semen assessed as induction of sperm immobilization; assay type: functional
Trichomonas vaginalis [4] = assay: Anti-Trichomonas activity against Trichomonas vaginalis; assay type: functional, organism-based
Trichomonas vaginalis [5] = assay: Anti-Trichomonas activity against metronidazole-resistant Trichomonas vaginalis after 48 hrs by trypan blue exclusion assay; assay type: functional
Trichomonas vaginalis [6] = assay: Anti-Trichomonas activity against Trichomonas vaginalis after 24 hrs by inverted microscopic analysis; assay type: functional
Trichomonas vaginalis [7] = assay: Anti-Trichomonas activity against metronidazole-resistant Trichomonas vaginalis ATCC 50138 assessed as inhibition of parasite growth at 5.5 mM measured at 5 to 60 mins in presence of NH4Cl by trypan blue-based assay; assay type: functional
Trichomonas vaginalis [8] = assay: Anti-Trichomonas activity against metronidazole-susceptible Trichomonas vaginalis ATCC 30001 assessed as inhibition of parasite growth at 5.5 mM measured at 5 to 60 mins in presence of NH4Cl by trypan blue-based assay; assay type: functional
Trichomonas vaginalis [9] = assay: Anti-Trichomonas activity against metronidazole-susceptible Trichomonas vaginalis ATCC 30236 after 24 hrs by hemocytometry; assay type: functional, organism-based; details: ATCC 30236, 24 h
Homo sapiens [10] = organism: Homo sapiens; assay: Spermicidal activity in human semen assessed as induction of sperm immobilization 0.0015% after 30 secs in presence of sapindus saponin
Trichomonas vaginalis [11] = assay: Anti-Trichomonas activity against metronidazole-resistant Trichomonas vaginalis IR78 ATCC 50138 cultured in PBS/BSA media assessed as reduction in parasite growth after 30 mins by haemocytometry; assay type: functional, organism-based; details: IR78 ATCC 50138, 0.5 h
Trichomonas vaginalis [12] = assay: Anti-Trichomonas activity against metronidazole-resistant Trichomonas vaginalis IR78 ATCC 50138 cultured in TYI-S-33 media assessed as reduction in parasite growth after 30 mins by haemocytometry; assay type: functional, organism-based; details: IR78 ATCC 50138, 0.5 h
Trichomonas vaginalis [13] = assay: Anti-Trichomonas activity against Metronidazole-resistant Trichomonas vaginalis 085 ATCC 50143 after 48 hrs by inverted microscopic analysis; assay type: functional; details: 085 ATCC 50143, 48 h
Trichomonas vaginalis [14] = assay: Anti-Trichomonas activity against Trichomonas vaginalis JT assessed as reduction in parasite growth after 48 hrs by haemocytometry; assay type: functional, organism-based
Trichomonas vaginalis [15] = assay: Anti-Trichomonas activity against Trichomonas vaginalis JT assessed as reduction in parasite growth after 24 hrs by haemocytometry; assay type: functional, organism-based
Trichomonas vaginalis [16] = assay: Anti-Trichomonas activity against metronidazole-susceptible Trichomonas vaginalis after 48 hrs by trypan blue exclusion assay; assay type: functional
Trichomonas vaginalis [17] = assay: Potency index, ratio of Metronidazole MIC to compound MIC for anti-trichomonas activity against Metronidazole-resistant Trichomonas vaginalis 085 ATCC 50143; assay type: functional
Trichomonas vaginalis [18] = assay: Anti-Trichomonas activity against Metronidazole-resistant Trichomonas vaginalis isolate 085 ATCC 50143 infected in Swiss Webster mouse at 25 mg/kg, po dosed for 4 days measured at 24 hrs post last dose by microscopic analysis; assay type: functional
Trichomonas vaginalis [19] = assay: Anti-Trichomonas activity against Trichomonas vaginalis by quantitative fluorescent method; assay type: functional
Trichomonas vaginalis [20] = assay: Anti-Trichomonas activity against Trichomonas vaginalis at 100 uM; assay type: functional
Trichomonas vaginalis [21] = assay: Anti-Trichomonas activity against metronidazole-resistant Trichomonas vaginalis JT after 48 hrs by hemocytometry; assay type: functional, organism-based
[22] = Trichomonas vaginalis, read-out: MIC

Compound: CCCCCCCCCCCC(=O)O[C@H]1C=C2CCN3Cc4cc5c(cc4[C@H]([C@@H]1O)[C@@H]23)OCO5
inhibition at 250 µM (Trichomonas vaginalis [1]): 100%
inhibition at 250 µM (Trichomonas vaginalis [2]): 100%

Compound: C1CCNC1.S=C(S)N1CCCC1 [listing 1 of 2 here]
MEC (Homo sapiens [3]): 145 µM

Compound: CN(CCC(Oc1ccc(C(F)(F)F)cc1)c1ccccc1)C(=S)SCN1CCCC1 (centres undefined)
MIC (Trichomonas vaginalis [5]): 14 µg/mL
MEC (Homo sapiens [3]): 0.05%

Compound: C[C@@H](CCC1(O)OC2CC3C4C[C@H](O[C@H]5O[C@@H](C)[C@H](O)[C@@H](O[C@H]6O[C@@H](C)[C@H](O)[C@@H](O)[C@@H]6O)[C@@H]5O)[C@H]5CC(O)CC[C@]5(C)C4CC[C@]3(C)C2[C@@H]1C)CO[C@@H]1O[C@H](CO)[C@@H](O)[C@H](O)[C@H]1O (some centres undefined)
MIC (Trichomonas vaginalis [6]): 6.25 to 50 µM (≈ 5.66 to 45.3 µg/mL)

Compound: OC[C@H]1O[C@@H](Oc2ccc(O)cc2)[C@H](O)[C@@H](O)[C@@H]1O [ARBUTIN]
MIC (Trichomonas vaginalis [4]; [22]): 500 µg/mL (≈ 1840 µM)

Compound: O=S(=O)(O)CCNCl
inhibition at 5500 µM (Trichomonas vaginalis [7]): 100%
inhibition at 5500 µM (Trichomonas vaginalis [8]): 100%

Compound: C1CCNCC1.S=C(S)N1CCCC1 [listing 1 of 2 here]
MEC (Homo sapiens [3]): 61.5 mg/L

Compound: O=C(SCC(CN1CCCC1)SSC(CSC(=O)N1CCCCC1)CN1CCCC1)N1CCCCC1 (centres undefined)
Activity (Homo sapiens [10]): 100%

Compound: CCCCCCCCN=c1ccn(CCCCCCCCCCn2ccc(=NCCCCCCCC)cc2)cc1.Cl.Cl [OCTENIDINE HYDROCHLORIDE]
EC50 (Trichomonas vaginalis [11]): 0.68 to 2.11 µg/mL
EC50 (Trichomonas vaginalis [12]): 0.68 to 2.11 µg/mL

Compound: COC(=O)C1=CO[C@@H](O[C@@H]2O[C@H](CO)[C@@H](O)[C@H](O)[C@H]2O)[C@H]2[C@@H]1C=C[C@@]21C=C([C@H](C)OC(=O)/C=C/c2ccc(O)cc2)C(=O)O1
MIC (Trichomonas vaginalis [6]): 12.5 µM (≈ 7.71 µg/mL)

Compound: CCCCCCCCCCCCCCCCOP(=O)([O-])OCC[N+](C)(C)C [MILTEFOSINE]
MIC (Trichomonas vaginalis [13]): 145 µM (≈ 59.1 µg/mL)
IC50 (Trichomonas vaginalis [14]): 20 µM
IC50 (Trichomonas vaginalis [15]): 14.5 µM

Compound: N#CCCCN1CCN(C(=S)SSC(=S)N2CCN(CCCC#N)CC2)CC1
MIC (Trichomonas vaginalis [5]): 3.12 to 50 µg/mL

Compound: C1CCNCC1.S=C(S)N1CCCC1 [listing 2 of 2 here]
MIC (Trichomonas vaginalis [16]): 1.56 µg/mL
MIC (Trichomonas vaginalis [5]): 7.8 µg/mL

Compound: Cc1ncc([N+](=O)[O-])n1CCO [METRONIDAZOLE]
MIC (Trichomonas vaginalis [5]): 1 to 111 µM
MEC (Homo sapiens [3]): 1%

Compound: COc1cc(/C=C/C(=O)CC(=O)/C=C/c2ccc(O)c(OC)c2)ccc1O [CURCUMIN]
EC50 (Trichomonas vaginalis [4]; Trichomonas vaginalis): 100 µg/mL (≈ 271 µM)

Compound: C1CCNC1.S=C(S)N1CCCC1 [listing 2 of 2 here]
MIC (Trichomonas vaginalis [16]): 5.25 µM
MIC (Trichomonas vaginalis [5]): 13.5 µM

Compound: COC(=O)C1=CC[C@@H](O[C@@H]2O[C@H](CO)[C@@H](O)[C@H](O)[C@H]2O)C(CCC=O)[C@@H]1CC(=O)OCCc1ccc(O)c(O)c1 (some centres undefined)
MIC (Trichomonas vaginalis [6]): 12.5 µM (≈ 7.11 µg/mL)

Compound: c1cc(CCCc2ccc(-c3nc4ccccc4[nH]3)cc2)cc(-c2nc3ccccc3[nH]2)c1
Ratio (Trichomonas vaginalis [17]): 5.5
MIC (Trichomonas vaginalis [13]): 26 µM (≈ 11.1 µg/mL)
Activity (Trichomonas vaginalis [18]): 100%

Compound: C[C@@H](CCC1(O)OC2CC3C4C[C@H](O[C@H]5O[C@@H](C)[C@H](O)[C@@H](O[C@H]6O[C@@H](C)[C@H](O)[C@@H](O)[C@@H]6O)[C@@H]5O)[C@H]5CC(=O)CC[C@]5(C)C4CC[C@]3(C)C2[C@@H]1C)CO[C@@H]1O[C@H](CO)[C@@H](O)[C@H](O)[C@H]1O (some centres undefined)
MIC (Trichomonas vaginalis [6]): 6.25 to 50 µM (≈ 5.64 to 45.2 µg/mL)

Compound: C[C@H]1[C@H](C)CC[C@]2(C(=O)O[C@@H]3O[C@H](CO)[C@@H](O)[C@H](O)[C@H]3O)CC[C@]3(C)C(=CC[C@@H]4[C@@]5(C)CC[C@H](O[C@@H]6O[C@H](CO[C@@H]7O[C@@H](C)[C@H](O)[C@@H](O)[C@H]7O[C@@H]7O[C@H](CO)[C@@H](O)[C@H](O)[C@H]7O)[C@@H](O)[C@@H]6O)C(C)(C)[C@@H]5CC[C@]43C)[C@H]12
MIC (Trichomonas vaginalis [19]): 0.05%

Compound: C[C@H]1CC[C@]2(NC1)O[C@H]1C[C@H]3[C@@H]4CC[C@H]5C[C@@H](O[C@@H]6O[C@H](CO)[C@H](O[C@@H]7O[C@H](CO)[C@@H](O)[C@H](O[C@@H]8OC[C@@H](O)[C@H](O)[C@H]8O)[C@H]7O[C@@H]7O[C@H](CO)[C@@H](O)[C@H](O)[C@H]7O)[C@H](O)[C@H]6O)CC[C@]5(C)[C@H]4CC[C@]3(C)[C@H]1[C@@H]2C [TOMATINE]
inhibition at 100 µM (Trichomonas vaginalis [20]): 103%

Compound: OC1(c2ccc(-c3ccccc3)cc2)CN2CCC1CC2 (centres undefined)
IC50 (Trichomonas vaginalis [21]): 46 µM

Compound: FC(F)(F)c1ccc(OC(CCN2CCCC2)c2ccccc2)cc1 (centres undefined)
MIC (Trichomonas vaginalis [5]): 12.5 to 50 µg/mL
MEC (Homo sapiens [3]): 1%

Second part, the compound after the results:

MIC (Trichomonas vaginalis [4]; [22]): 500 to 1000 µg/mL (≈ 1480 to 2950 µM)
Compound: CCCCCCCCCCCCCCCCCCCCCCCC

MIC (Trichomonas vaginalis [4]; [22]): > 2000 µg/mL
Compound: Oc1cc(O)c2c(c1)O[C@H](c1cc(O)c(O)c(O)c1)[C@@H](O)[C@@H]2c1c(O)cc(O)c2c1O[C@H](c1cc(O)c(O)c(O)c1)[C@@H](O)C2

MIC (Trichomonas vaginalis [6]): 6.25 µM (≈ 3.59 µg/mL)
Compound: C=C(CO[C@@H]1O[C@H](CO)[C@@H](O)[C@H](O)[C@H]1O)[C@@H]1Cc2c(ccc3c2O[C@H]2COc4cc(OC)c(OC)cc4[C@H]2[C@@H]3O)O1

MIC (Trichomonas vaginalis [4]): 0.025%
Compound: CC1(C)CC[C@]2(C(=O)O)[C@H](O)C[C@]3(C)C(=CC[C@@H]4[C@@]5(C)CC[C@H](O[C@@H]6O[C@H](C(=O)O)[C@@H](O)[C@H](O)[C@H]6O)[C@@](C)(C=O)[C@@H]5CC[C@]43C)[C@@H]2C1

MIC (Trichomonas vaginalis [6]): 6.25 µM (≈ 3.42 µg/mL)
Compound: COC(=O)C1=CO[C@H](O[C@@H]2O[C@H](CO)[C@@H](O)[C@H](O)[C@H]2O)[C@@]2(C)[C@@H](C)OC(=O)C(C)(C)[C@@H](C)OC(=O)C[C@@]12C

MIC (Trichomonas vaginalis [4]; [22]): 20 µg/mL (≈ 55.5 µM)
Compound: O=C(/C=C/c1ccc(O)c(O)c1)O[C@H](Cc1ccc(O)c(O)c1)C(=O)O [ROSMARINIC ACID]

IC50 (Trichomonas vaginalis [9]): 122 µM
Compound: CC(C)C(=O)C1=C(O)C(Cc2c(O)c3c(c(C(=O)C(C)C)c2O)OC(C)(C)C=C3)=C(O)C(C)(C)C1=O

IC50 (Trichomonas vaginalis [9]): 1230 µM
Compound: COc1cc2c(c(O)c1C(=O)C(C)C)C=CC(C)(C)O2

IC50 (Trichomonas vaginalis [4]; Trichomonas vaginalis): 171 µg/mL (≈ 1110 µM)
Compound: CC(C)=CCC/C(C)=C/CO [GERANIOL]

MIC (Trichomonas vaginalis [4]; [22]): > 2000 µg/mL
Compound: Oc1cc(O)c2c(c1)O[C@H](c1ccc(O)c(O)c1)[C@H](O[C@]1(c3ccc(O)c(O)c3)Oc3cc(O)cc(O)c3[C@H](O)[C@H]1O)C2

MIC (Trichomonas vaginalis [4]; [22]): 500 to 1000 µg/mL (≈ 1950 to 3900 µM)
Compound: CCCCCCCCCCCCCCCC(=O)O [PALMITIC ACID]

IC50 (Trichomonas vaginalis [9]): 226 µM
Compound: COc1cc2c(c(OC)c1C(=O)C(C)C)C=CC(C)(C)O2

IC50 (Trichomonas vaginalis [9]): 834 µM
Compound: COc1c2c(cc(O)c1C(=O)C(C)C)OC(C)(C)C=C2

MIC (Trichomonas vaginalis [4]): 0.25%
Compound: CC1(C)CC[C@]2(C(=O)O)CC[C@]3(C)C(=CC[C@@H]4[C@@]5(C)CC[C@H](O[C@@H]6[C@@H](O)[C@H](O[C@@H]7O[C@H](CO)[C@@H](O)[C@H](O)[C@H]7O)O[C@H](CO)[C@H]6O)C(C)(C)[C@@H]5CC[C@]43C)[C@@H]2C1
